Data on eleven compounds can be found in ChEMBL document CHEMBL5465560, “Selectivity Literature for EUbOPEN Chemogenomic Library” (2024).

In assay [1] the target is Dual specificity protein kinase CLK1 (Homo sapiens, UniProt P49759). Kind of assay: Selectivity interaction (Kinase panel (Z-LYTE Assay)) EUB0001632a CLK1. The note with it: at 10 µM.
Assay [2] concerns Epidermal growth factor receptor (Homo sapiens), P00533 [UNDEFINED MUTATION]. The assay can be described thus: Selectivity interaction (Ambit KINOMEscan and KiNATiv profiling in Jurkat cells) EUB0000090b EGFR. The assay is classed as cell-based. The note with it: at 1 µM.
Chain of Epidermal growth factor receptor (Homo sapiens), P00533 [UNDEFINED MUTATION] (P00533 whole entry, looked up, change not shown): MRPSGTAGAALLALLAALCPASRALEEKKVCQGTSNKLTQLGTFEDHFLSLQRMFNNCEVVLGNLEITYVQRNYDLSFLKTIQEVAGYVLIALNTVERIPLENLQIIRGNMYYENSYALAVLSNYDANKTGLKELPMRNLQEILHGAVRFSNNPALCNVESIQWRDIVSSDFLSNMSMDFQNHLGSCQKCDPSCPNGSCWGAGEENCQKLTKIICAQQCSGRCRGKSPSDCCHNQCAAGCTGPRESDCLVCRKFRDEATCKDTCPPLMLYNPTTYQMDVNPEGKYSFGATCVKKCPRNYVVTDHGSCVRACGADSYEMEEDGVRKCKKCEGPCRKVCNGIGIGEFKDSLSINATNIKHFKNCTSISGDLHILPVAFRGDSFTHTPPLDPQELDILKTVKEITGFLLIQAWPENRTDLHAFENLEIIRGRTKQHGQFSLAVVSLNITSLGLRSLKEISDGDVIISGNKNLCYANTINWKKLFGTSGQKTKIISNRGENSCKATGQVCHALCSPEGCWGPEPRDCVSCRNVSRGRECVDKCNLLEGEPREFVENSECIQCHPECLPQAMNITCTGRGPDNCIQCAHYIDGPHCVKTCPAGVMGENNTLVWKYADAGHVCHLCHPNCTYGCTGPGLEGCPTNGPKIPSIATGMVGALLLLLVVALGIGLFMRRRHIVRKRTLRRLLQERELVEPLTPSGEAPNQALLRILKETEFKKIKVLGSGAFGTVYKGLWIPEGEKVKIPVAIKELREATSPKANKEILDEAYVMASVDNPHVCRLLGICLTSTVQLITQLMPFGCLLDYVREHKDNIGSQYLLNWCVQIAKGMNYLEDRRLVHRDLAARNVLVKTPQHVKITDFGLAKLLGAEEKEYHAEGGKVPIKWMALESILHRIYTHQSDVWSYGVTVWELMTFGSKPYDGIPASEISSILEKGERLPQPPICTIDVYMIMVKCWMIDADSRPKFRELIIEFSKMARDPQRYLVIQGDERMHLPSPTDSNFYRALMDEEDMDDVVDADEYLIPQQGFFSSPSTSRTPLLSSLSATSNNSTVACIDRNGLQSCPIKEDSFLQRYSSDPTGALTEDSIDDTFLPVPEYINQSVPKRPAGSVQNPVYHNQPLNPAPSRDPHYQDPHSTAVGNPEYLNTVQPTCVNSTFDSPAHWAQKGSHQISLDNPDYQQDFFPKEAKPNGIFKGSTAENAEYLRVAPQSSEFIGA
In assay [3] the target is T1, Gamma-aminobutyric acid receptor subunit alpha-1 (Homo sapiens) (UniProt P14867).
T1 sequence (whole entry): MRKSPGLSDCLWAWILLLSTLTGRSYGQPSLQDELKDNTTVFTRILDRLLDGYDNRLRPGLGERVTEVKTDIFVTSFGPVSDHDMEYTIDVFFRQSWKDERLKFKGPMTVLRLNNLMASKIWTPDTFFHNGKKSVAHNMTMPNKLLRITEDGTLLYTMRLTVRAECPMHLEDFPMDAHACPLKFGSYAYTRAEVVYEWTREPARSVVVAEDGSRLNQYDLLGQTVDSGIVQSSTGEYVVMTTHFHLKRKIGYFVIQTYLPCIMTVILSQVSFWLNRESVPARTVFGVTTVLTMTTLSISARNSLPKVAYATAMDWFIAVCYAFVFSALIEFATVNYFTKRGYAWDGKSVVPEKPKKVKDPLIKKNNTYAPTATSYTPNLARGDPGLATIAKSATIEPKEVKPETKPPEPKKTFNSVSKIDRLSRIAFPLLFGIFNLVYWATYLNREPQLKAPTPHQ
The assay can be described thus: Selectivity interaction (Panel of non-epigenetic targets (kinases, GPCRs, ion channels, and transporters, Eurofins) ) EUB0000271b GABRA1. As to conditions: at 1 µM.

Assay [4] concerns Fibroblast growth factor receptor 3 (Homo sapiens), P22607 [K650E]. The assay can be described thus: (§1) Selectivity interaction (SelectScreen profiling (Invitrogen)) EUB0000607a FGFR3. As to conditions: at 2 µM.
Chain of Fibroblast growth factor receptor 3 (Homo sapiens), P22607 [K650E] (P22607 whole entry K650E): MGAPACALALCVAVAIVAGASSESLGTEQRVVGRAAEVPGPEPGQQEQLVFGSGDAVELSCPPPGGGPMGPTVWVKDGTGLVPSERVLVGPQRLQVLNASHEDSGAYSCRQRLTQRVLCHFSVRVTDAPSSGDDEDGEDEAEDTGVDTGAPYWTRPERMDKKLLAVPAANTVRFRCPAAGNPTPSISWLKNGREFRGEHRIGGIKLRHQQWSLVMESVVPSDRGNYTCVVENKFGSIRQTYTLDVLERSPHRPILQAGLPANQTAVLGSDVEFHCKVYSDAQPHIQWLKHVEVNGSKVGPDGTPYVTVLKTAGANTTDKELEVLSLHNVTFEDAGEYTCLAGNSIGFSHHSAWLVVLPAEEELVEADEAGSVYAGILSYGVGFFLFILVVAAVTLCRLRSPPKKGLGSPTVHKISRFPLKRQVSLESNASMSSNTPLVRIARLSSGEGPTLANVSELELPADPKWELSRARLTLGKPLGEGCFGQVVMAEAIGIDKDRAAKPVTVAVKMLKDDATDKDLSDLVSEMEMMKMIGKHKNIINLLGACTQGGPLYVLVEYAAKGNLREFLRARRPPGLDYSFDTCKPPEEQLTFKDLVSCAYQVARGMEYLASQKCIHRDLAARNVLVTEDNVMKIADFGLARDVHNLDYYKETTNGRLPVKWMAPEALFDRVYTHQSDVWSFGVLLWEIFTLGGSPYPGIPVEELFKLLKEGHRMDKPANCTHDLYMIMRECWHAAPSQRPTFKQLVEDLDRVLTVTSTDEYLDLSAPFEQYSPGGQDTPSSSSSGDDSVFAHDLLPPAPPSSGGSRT
In assay [5] the target is Fibroblast growth factor receptor 3 (Homo sapiens, UniProt P22607). Described as §1. The note with it: at 2 µM.
The target in assay [6] is Myosin light chain kinase 2, skeletal/cardiac muscle (Homo sapiens) (UniProt Q9H1R3). The note with it: at 10 µM.
Assay [7] deals with cAMP-dependent protein kinase catalytic subunit alpha (Homo sapiens, UniProt P17612). The note with it: at 10 µM.
In assay [8] the target is T2, Serine/threonine-protein kinase ULK3 (Homo sapiens) (UniProt Q6PHR2).
T2 sequence (whole entry): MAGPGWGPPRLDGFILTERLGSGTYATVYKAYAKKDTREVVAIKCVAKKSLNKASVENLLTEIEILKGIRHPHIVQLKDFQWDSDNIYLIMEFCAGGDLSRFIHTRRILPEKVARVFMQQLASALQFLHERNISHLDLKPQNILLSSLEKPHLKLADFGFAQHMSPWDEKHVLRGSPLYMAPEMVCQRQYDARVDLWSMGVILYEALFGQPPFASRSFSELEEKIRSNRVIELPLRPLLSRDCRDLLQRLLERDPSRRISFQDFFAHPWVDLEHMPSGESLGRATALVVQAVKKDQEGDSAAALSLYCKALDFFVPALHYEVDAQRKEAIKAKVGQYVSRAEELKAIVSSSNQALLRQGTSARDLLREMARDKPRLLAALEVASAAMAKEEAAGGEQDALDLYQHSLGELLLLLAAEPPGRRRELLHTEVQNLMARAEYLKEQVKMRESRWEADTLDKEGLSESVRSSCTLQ
The assay can be described thus: Selectivity interaction (KinomeScan (DiscoverX)) EUB0001079a ULK3. The note with it: at 1 µM.

The target in assay [9] is Serine/threonine-protein kinase PAK 1 (Homo sapiens) (UniProt Q13153). Kind of assay: Selectivity interaction (Kinase panel (Eurofins)) EUB0001564a PAK1. As to conditions: at 1 µM.
Chain of Serine/threonine-protein kinase PAK 1 (Homo sapiens) (Q13153 whole entry): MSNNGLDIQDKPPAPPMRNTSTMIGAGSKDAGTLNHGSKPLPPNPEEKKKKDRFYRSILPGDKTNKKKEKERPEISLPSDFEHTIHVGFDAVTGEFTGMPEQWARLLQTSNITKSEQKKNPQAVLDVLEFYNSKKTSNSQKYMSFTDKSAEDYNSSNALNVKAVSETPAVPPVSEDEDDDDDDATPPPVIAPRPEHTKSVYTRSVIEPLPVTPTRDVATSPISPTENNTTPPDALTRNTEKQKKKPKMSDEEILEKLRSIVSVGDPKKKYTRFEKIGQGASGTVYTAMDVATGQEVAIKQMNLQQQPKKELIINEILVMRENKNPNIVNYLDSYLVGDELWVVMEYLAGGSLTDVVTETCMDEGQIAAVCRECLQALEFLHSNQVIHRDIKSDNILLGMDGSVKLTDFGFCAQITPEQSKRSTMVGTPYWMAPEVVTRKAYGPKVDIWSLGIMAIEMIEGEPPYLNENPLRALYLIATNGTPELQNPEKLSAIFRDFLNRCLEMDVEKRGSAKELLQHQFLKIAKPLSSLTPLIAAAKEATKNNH
For assay [10], the target named is Hepatocyte growth factor receptor (Homo sapiens, UniProt P08581). Kind of assay: (§2) Selectivity interaction (KinomeScan (DiscoverX)) EUB0000695a MET. As to conditions: at 100 nM.
The subject of assay [11] is Hepatocyte growth factor receptor (Homo sapiens), P08581 [M1250T]. The assay is described as §2. The note with it: at 100 nM.
Assay [12] has as its system Hepatocyte growth factor receptor (Homo sapiens), P08581 [Y1235D]. The description is as §2. The note with it: at 100 nM.
Assay [13] deals with DNA (cytosine-5)-methyltransferase 3A (Homo sapiens) (UniProt Q9Y6K1). The assay can be described thus: Selectivity interaction (PWWP, WD40, and Tudor domain panel (DSLS measurements, literature)) EUB0000270b DNMT3A.
The target in assay [14] is Cyclin-dependent kinase 7 (Homo sapiens, UniProt P50613). Kind of assay: Selectivity interaction (KinomeScan (DiscoverX)) EUB0001550a CDK7. As to conditions: at 1 µM.
Chain of Cyclin-dependent kinase 7 (P50613 whole entry): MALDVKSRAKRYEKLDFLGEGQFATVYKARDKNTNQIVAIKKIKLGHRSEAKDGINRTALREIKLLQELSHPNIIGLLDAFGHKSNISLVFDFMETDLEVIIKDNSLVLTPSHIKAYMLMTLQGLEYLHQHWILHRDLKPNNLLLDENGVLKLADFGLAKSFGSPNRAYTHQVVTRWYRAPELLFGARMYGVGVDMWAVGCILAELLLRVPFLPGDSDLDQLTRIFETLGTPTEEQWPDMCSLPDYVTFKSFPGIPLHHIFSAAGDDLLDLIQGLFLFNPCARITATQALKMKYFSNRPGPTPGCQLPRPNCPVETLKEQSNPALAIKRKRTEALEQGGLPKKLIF
The target of assay [15] is Serine/threonine-protein kinase SBK1 (Homo sapiens) (UniProt Q52WX2). The assay can be described thus: Selectivity interaction (KinomeScan (DiscoverX)) EUB0000045b SBK1.
Chain of Serine/threonine-protein kinase SBK1 (Homo sapiens) (Q52WX2 whole entry): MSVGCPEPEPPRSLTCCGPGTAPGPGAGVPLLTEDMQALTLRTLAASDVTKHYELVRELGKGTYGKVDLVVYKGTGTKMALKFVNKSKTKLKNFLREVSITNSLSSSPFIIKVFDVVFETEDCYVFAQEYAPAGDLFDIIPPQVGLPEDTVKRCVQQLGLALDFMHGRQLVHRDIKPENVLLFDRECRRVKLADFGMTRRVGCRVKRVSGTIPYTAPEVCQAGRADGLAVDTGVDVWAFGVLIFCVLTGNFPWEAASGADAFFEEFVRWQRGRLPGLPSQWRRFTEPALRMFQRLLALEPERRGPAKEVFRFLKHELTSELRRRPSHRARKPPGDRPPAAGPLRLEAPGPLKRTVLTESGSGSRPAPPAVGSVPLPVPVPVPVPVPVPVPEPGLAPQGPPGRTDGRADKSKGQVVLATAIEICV
Assay [16] addresses Serine/threonine-protein kinase MRCK beta (Homo sapiens) (UniProt Q9Y5S2). Kind of assay: Selectivity interaction (KinomeScan (DiscoverX)) EUB0000045b CDC42BPB.

Chain of Serine/threonine-protein kinase MRCK beta (Homo sapiens) (Q9Y5S2 whole entry): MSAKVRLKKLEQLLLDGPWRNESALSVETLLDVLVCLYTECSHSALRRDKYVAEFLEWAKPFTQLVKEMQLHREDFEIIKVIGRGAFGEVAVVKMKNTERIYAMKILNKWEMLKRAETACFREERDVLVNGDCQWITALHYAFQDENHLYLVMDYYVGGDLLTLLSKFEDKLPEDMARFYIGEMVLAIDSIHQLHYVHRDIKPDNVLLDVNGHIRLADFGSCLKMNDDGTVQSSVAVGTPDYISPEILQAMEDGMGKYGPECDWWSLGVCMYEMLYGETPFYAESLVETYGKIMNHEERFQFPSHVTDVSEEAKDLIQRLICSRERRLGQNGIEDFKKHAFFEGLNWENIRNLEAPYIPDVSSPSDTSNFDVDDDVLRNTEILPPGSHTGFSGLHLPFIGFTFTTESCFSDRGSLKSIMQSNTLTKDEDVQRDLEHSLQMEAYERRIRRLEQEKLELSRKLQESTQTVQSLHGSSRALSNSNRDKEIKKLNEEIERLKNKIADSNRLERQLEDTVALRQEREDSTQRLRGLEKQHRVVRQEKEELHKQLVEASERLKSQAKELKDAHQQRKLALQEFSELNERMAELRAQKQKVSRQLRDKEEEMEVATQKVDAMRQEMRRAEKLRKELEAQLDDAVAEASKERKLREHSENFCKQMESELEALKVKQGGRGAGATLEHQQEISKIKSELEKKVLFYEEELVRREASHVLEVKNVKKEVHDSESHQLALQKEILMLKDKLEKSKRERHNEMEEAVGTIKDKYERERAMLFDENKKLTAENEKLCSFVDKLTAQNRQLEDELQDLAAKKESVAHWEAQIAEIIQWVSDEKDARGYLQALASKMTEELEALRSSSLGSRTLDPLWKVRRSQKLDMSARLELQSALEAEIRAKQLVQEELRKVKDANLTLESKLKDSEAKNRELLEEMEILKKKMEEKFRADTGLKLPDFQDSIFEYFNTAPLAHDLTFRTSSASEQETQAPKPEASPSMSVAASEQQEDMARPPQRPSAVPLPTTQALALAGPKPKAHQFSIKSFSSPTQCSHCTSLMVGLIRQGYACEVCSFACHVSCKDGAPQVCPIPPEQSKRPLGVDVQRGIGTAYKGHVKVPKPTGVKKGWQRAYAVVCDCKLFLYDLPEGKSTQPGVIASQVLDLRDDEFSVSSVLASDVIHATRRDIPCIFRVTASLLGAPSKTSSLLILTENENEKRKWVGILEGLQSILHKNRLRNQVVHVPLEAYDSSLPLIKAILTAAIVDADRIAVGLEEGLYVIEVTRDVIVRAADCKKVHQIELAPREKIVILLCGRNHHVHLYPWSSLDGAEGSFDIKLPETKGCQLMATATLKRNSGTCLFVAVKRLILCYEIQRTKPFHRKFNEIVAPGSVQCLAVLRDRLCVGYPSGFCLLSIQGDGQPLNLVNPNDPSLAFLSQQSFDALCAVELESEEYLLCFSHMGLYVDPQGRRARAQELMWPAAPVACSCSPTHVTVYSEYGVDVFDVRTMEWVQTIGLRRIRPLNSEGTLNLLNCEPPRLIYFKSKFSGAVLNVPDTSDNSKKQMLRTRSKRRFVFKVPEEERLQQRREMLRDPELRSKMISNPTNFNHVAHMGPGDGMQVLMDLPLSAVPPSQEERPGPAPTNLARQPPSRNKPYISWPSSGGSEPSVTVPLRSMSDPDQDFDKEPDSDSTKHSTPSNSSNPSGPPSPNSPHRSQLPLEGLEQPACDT

In the case of `Cn1cc(-n2cnc3c(NCc4nc5cc(Cl)c(Cl)cc5[nH]4)nc(N4CCOCC4)nc32)cn1`, the % of control in [1] turned out to be 8.07%.

Take `CN(C)C/C=C/C(=O)Nc1ccc(C(=O)N2CCCC(Nc3ncc(Cl)c(-c4c[nH]c5ccccc45)n3)C2)cc1` (stereo not drawn): the % of control in assay [2] was determined as 80%.

For `Cc1cc(C)cc([C@@H]2c3cc(C)ccc3NC(=O)CN2C(=O)c2ccc(Br)s2)c1`, the % of inhibition in assay [3] is -9%.

As for `CNC(=O)Nc1ccc(-c2nc(N3CC4CCC(C3)O4)c3cnn(C4CCC5(CC4)OCCO5)c3n2)cc1`, the % of inhibition in [4] came to 6%; in assay [5], 5%.

In the case of `Cc1cc([C@@H](C)Nc2ccccc2C(=O)O)c2nc(N3CCOCC3)cc(=O)n2c1` [AZD-6482], the % of control in [6] and in assay [7] was 100% each time.

In turn, `Nc1cnc(N2CCc3cc(S(=O)(=O)Nc4c(F)cc(Cl)cc4F)cc(N4CCCC4=O)c32)nc1` [TP-020n] came in with a % of control in [8] of 100%.

Consider `CC[C@@H](Nc1c(C#N)c(-c2ccc(-c3cccc(C)c3F)cc2)nc2cnccc12)C(=O)O` [BAY-091], for which, in assay [9], the % of inhibition was 23.8%.

For the compound `Cc1cc(F)c(C(=O)Nc2cccc(-c3nncn3C(C)C)n2)cc1-n1cnc(C2CC2)c1`, the % of control was 97% in assay [10], 100% in [11] and 100% in [12].

For `Cc1cc(CN)cc(C)c1-c1ncn(C)c1-c1cncn1C`, the dTagg in [13] was -0.1 K.

In the case of `CN(C)CC#Cc1ccc2[nH]c3c(c2c1)-c1nc(N)ncc1CCC3`, in assay [14], the % of control amounted to 20%.

As to `C=CC(=O)Nc1cc(-n2c(=O)ccc3cnc4ccc(-c5ccc(NS(C)(=O)=O)cc5)cc4c32)ccc1C`, the % of control in assay [15] (at 1 µM) worked out at 4.6%; in assay [15] (at 10 µM), 100%; in assay [16] (at 1 µM) it was 100%; in assay [16] (at 10 µM) it was 100%.
